Measured values from patent publication US7572786B2, “Substituted 1-piperidin-3-yl-4-piperidin-4-yl-piperazine derivatives and their use as neurokinin antagonists” (Janssen Pharmaceutica, N.V., priority 2002, dated 2009).

Experiments:
Type in all cases: cell-based
NK2 = target: T1, NK2 (Homo sapiens, UniProt P21452); experiment: Signal transduction (ST), intracellular Ca++ (FLIPR), NK2; details: for IC50: read-out: pIC50 NK2 (converted)
T1 sequence (P21452 1-398): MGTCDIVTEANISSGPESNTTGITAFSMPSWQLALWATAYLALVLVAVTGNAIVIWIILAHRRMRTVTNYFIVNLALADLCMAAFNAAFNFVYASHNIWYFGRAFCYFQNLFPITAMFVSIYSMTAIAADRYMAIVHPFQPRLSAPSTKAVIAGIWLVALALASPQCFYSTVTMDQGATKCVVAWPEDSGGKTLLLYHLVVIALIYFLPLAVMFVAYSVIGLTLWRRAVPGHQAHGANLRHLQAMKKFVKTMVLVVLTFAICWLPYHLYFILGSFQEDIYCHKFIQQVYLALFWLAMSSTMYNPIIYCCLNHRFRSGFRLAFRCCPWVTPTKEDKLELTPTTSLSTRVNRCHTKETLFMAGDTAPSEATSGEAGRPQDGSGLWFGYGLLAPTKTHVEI
Protocol: [The source words this procedure for another target and reports this target under the same test.] (§1) This test evaluates in vitro functional NK1 antagonistic activity. For the measurements of intracellular Ca^++ concentrations the cells were grown on 96-well (black wall/transparent bottom) plates from Costar for 2 days until they reached confluence. The cells were loaded with 2 μM Fluo3 in DMEM containing 0.1% BSA and 2.5 mM probenecid for 1 h at 37° C. […] The cells were preincubated with a concentration range of antagonists for 20 min at RT and Ca^++-signals after addition of the agonists were measured in a Fluorescence Image Plate Reader (FLIPR from Molecular Devices, Crawley, England). The peak of the Ca^++-transient was considered as the relevant signal and the mean values of corresponding wells were analysed as described below.
(§2) The sigmoidal dose response curves were analysed by computerised curve-fitting, using the GraphPad Program. […] For antagonist responses the IC50-value was calculated using non-linear regression.

NK3 = target: T2, NK3 (Homo sapiens, UniProt P29371); experiment: Signal transduction (ST), intracellular Ca++ (FLIPR), NK3; details: for IC50: read-out: pIC50 NK3 (converted)
T2 sequence (P29371 1-465): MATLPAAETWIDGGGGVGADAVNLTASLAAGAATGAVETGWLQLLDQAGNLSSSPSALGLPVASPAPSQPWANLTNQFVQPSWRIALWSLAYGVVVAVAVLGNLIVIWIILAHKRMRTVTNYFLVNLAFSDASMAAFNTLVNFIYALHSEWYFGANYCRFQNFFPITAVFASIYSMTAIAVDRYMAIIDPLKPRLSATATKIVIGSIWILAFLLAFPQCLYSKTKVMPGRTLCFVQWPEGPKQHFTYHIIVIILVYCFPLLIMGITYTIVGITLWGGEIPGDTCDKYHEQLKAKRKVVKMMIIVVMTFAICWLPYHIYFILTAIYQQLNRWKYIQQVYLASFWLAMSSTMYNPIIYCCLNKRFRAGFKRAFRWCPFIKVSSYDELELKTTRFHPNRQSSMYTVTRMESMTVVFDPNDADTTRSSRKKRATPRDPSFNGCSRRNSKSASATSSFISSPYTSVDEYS
Protocol: [The source words this procedure for another target and reports this target under the same test.] as §1, §2

NK1 = NK1 (Homo sapiens, UniProt P25103); experiment: Signal transduction (ST), intracellular Ca++ (FLIPR), NK1 antagonism; details: for IC50: read-out: pIC50 NK1 (converted)
Chain of NK1 (P25103 whole entry): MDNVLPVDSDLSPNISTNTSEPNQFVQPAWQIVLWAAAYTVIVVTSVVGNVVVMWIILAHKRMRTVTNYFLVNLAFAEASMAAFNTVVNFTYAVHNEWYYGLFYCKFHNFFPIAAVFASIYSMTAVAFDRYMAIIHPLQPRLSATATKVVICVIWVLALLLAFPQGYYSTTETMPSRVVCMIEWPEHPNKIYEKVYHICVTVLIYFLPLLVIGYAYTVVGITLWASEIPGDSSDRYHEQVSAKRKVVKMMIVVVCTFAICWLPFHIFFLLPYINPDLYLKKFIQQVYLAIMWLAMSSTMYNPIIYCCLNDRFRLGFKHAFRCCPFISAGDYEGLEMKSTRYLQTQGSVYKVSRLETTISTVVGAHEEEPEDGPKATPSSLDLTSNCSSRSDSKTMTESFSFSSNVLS
Protocol: as §1, §2

| Structure (SMILES) | IC50 (NK2) [nM] | IC50 (NK3) [nM] | IC50 (NK1) [nM] | pIC50 NK2 (NK2) | pIC50 NK3 (NK3) | pIC50 NK1 (NK1) |
| --- | --- | --- | --- | --- | --- | --- |
| COc1ccc(S(=O)(=O)N2CCCC(N3CCN([C@H]4CCN(C(=O)c5cc(C(F)(F)F)cc(C(F)(F)F)c5)[C@H](Cc5ccccc5)C4)CC3)C2)cc1 (stereo partly shown) [Compound 72] | 2000 | 1260 | 20 |  |  |  |
| Cc1ccccc1C(=O)N1CCCC(N2CCN([C@H]3CCN(C(=O)c4cc(C(F)(F)F)cc(C(F)(F)F)c4)[C@H](Cc4ccccc4)C3)CC2)C1 (stereo partly shown) [Compound 11] | 3160 | 1000 | 20 |  |  |  |
| O=C(c1cc(C(F)(F)F)cc(C(F)(F)F)c1)N1CC[C@H](N2CCN(C3CCCN(S(=O)(=O)c4cc(Cl)sc4Cl)C3)CC2)C[C@H]1Cc1ccccc1 (stereo partly shown) [Compound 40] |  |  |  | 5.1 | 6.6 | 7.6 |
| O=C(c1cc(C(F)(F)F)cc(C(F)(F)F)c1)N1CC[C@H](N2CCN(C3CCCN(S(=O)(=O)c4ccc(COCc5ccccc5)s4)C3)CC2)C[C@H]1Cc1ccccc1 (stereo partly shown) [Compound 87] | 794 | 7940 | 316 |  |  |  |
| O=C(c1cc(C(F)(F)F)cc(C(F)(F)F)c1)N1CC[C@H](N2CCN(C3CCCN(S(=O)(=O)c4ccc(CCO)s4)C3)CC2)C[C@H]1Cc1ccccc1 (stereo partly shown) [Compound 86] |  |  |  | 6.4 | 6.3 | 8.2 |
| COc1cccc(S(=O)(=O)N2CCCC(N3CCN([C@H]4CCN(C(=O)c5cc(C(F)(F)F)cc(C(F)(F)F)c5)[C@H](Cc5ccccc5)C4)CC3)C2)c1 (stereo partly shown) [Compound 69] |  |  |  | 5.6 | 6.2 | 7.8 |
| COc1ccc(NC(=NC#N)N2CCCC(N3CCN([C@H]4CCN(C(=O)c5cc(C(F)(F)F)cc(C(F)(F)F)c5)[C@H](Cc5ccccc5)C4)CC3)C2)cc1 (stereo partly shown) [Compound 94] | 3980 | 1000 | 20 |  |  |  |
| N#Cc1ccc(C(=O)N2CCCC(N3CCN([C@H]4CCN(C(=O)c5cc(C(F)(F)F)cc(C(F)(F)F)c5)[C@H](Cc5ccccc5)C4)CC3)C2)cc1 (stereo partly shown) [Compound 62] | 3980 | 3160 | 10 |  |  |  |
| Cc1nc(S(=O)(=O)N2CCCC(N3CCN([C@H]4CCN(C(=O)c5cc(C(F)(F)F)cc(C(F)(F)F)c5)[C@H](Cc5ccccc5)C4)CC3)C2)cn1C (stereo partly shown) [Compound 32] | 631 | 100 | 5.01 |  |  |  |
| O=C(c1cc(C(F)(F)F)cc(C(F)(F)F)c1)N1CC[C@H](N2CCN(C3CCCN(S(=O)(=O)c4cccs4)C3)CC2)C[C@H]1Cc1ccccc1 (stereo partly shown) [Compound 25] |  |  |  | 6.4 | 7.1 | 7.8 |
| O=C(c1cc(C(F)(F)F)cc(C(F)(F)F)c1)N1CC[C@H](N2CCN(C3CCCN(S(=O)(=O)c4ccc(Cl)s4)C3)CC2)C[C@H]1Cc1ccccc1 (stereo partly shown) [Compound 36] |  |  |  | 5.3 | 6.2 | 7.5 |
| O=C(c1cc(C(F)(F)F)cc(C(F)(F)F)c1)N1CCC(N2CCN(C3CCCN(C(CO)c4cccs4)C3)CC2)CC1Cc1ccccc1 (stereo not shown) [Compound 77] | 2000 | 3160 | 12.6 |  |  |  |
| CC(C)(C)OC(=O)N1CCC[C@@H]1C(=O)N1CCCC(N2CCN([C@H]3CCN(C(=O)c4cc(C(F)(F)F)cc(C(F)(F)F)c4)[C@H](Cc4ccccc4)C3)CC2)C1 (stereo partly shown) [Compound 53] |  |  |  | 5.7 | 7.3 | 8.3 |
| O=C(c1cc(C(F)(F)F)cc(C(F)(F)F)c1)N1CC[C@H](N2CCN(C3CCCN(S(=O)(=O)c4ccc(-c5cnco5)s4)C3)CC2)C[C@H]1Cc1ccccc1 (stereo partly shown) [Compound 37] | 2000 | 631 | 12.6 |  |  |  |
| O=C(c1cc(COCc2ccccc2)cs1)N1CCCC(N2CCN([C@H]3CCN(C(=O)c4cc(C(F)(F)F)cc(C(F)(F)F)c4)[C@H](Cc4ccccc4)C3)CC2)C1 (stereo partly shown) [Compound 85] | 3980 | 5010 | 79.4 |  |  |  |
| O=C(c1cc(C(F)(F)F)cc(C(F)(F)F)c1)N1CC[C@H](N2CCN(C3CCCN(c4cnccn4)C3)CC2)C[C@H]1Cc1ccccc1 (stereo partly shown) [Compound 26] | 7940 | 794 | 7.94 |  |  |  |
| O=C(c1cc(C(F)(F)F)cc(C(F)(F)F)c1)N1CCC(N2CCN(C3CCCN(S(=O)(=O)c4cccs4)C3)CC2)CC1Cc1ccccc1 (stereo not shown) [Compound 59] | 3160 | 2000 | 15.8 |  |  |  |
| O=C(c1cccnc1)N1CCCC(N2CCN([C@H]3CCN(C(=O)c4cc(C(F)(F)F)cc(C(F)(F)F)c4)[C@H](Cc4ccccc4)C3)CC2)C1 (stereo partly shown) [Compound 23] | 3980 | 2000 | 20 |  |  |  |
| O=C(c1cc(C(F)(F)F)cc(C(F)(F)F)c1)N1CC[C@H](N2CCN(C3CCCN(S(=O)(=O)c4occc4COCc4ccccc4)C3)CC2)C[C@H]1Cc1ccccc1 (stereo partly shown) [Compound 90] |  |  |  | 5.7 |  | 6.8 |
| CC(C)(C)OC(=O)N1CCCC1C(=O)N1CCCC(N2CCN(C3CCN(C(=O)c4cc(C(F)(F)F)cc(C(F)(F)F)c4)C(Cc4ccccc4)C3)CC2)C1 (stereo not shown) [Compound 54] | 2000 | 251 | 5.01 |  |  |  |
| O=C(c1sccc1CO)N1CCCC(N2CCN([C@H]3CCN(C(=O)c4cc(C(F)(F)F)cc(C(F)(F)F)c4)[C@H](Cc4ccccc4)C3)CC2)C1 (stereo partly shown) [Compound 97] | 3980 | 2510 | 10 |  |  |  |
| CC(C)N/C(=C\[N+](=O)[O-])N1CCCC(N2CCN(C3CCN(C(=O)c4cc(C(F)(F)F)cc(C(F)(F)F)c4)C(Cc4ccccc4)C3)CC2)C1 (stereo not shown) [Compound 103] | 6310 |  | 10 |  |  |  |

Continued, in another order:

| IC50 (NK2) [nM] | IC50 (NK3) [nM] | IC50 (NK1) [nM] | Structure (SMILES) | pIC50 NK2 (NK2) | pIC50 NK3 (NK3) | pIC50 NK1 (NK1) |
| --- | --- | --- | --- | --- | --- | --- |
| 3160 | 7940 | 63.1 | O=C(OCc1ccccc1C(=O)N1CCCC(N2CCN([C@H]3CCN(C(=O)c4cc(C(F)(F)F)cc(C(F)(F)F)c4)[C@H](Cc4ccccc4)C3)CC2)C1)c1ccccc1 (stereo partly shown) [Compound 82] |  |  |  |
| 3160 | 794 | 12.6 | N#Cc1cccc(C(=O)N2CCCC(N3CCN([C@H]4CCN(C(=O)c5cc(C(F)(F)F)cc(C(F)(F)F)c5)[C@H](Cc5ccccc5)C4)CC3)C2)c1 (stereo partly shown) [Compound 57] |  |  |  |
| 398 | 100 | 15.8 | O=C(c1cc(C(F)(F)F)cc(C(F)(F)F)c1)N1CCC(N2CCN(C3CCCN(S(=O)(=O)c4cc(CCO)cs4)C3)CC2)CC1Cc1ccccc1 (stereo not shown) [Compound 96] |  |  |  |
| 2000 | 501 | 10 | O=C(Cc1cccs1)N1CCCC(N2CCN([C@H]3CCN(C(=O)c4cc(C(F)(F)F)cc(C(F)(F)F)c4)[C@H](Cc4ccccc4)C3)CC2)C1 (stereo partly shown) [Compound 43] |  |  |  |
| 3160 | 1260 | 31.6 | COc1ccc(S(=O)(=O)N2CCCC(N3CCN([C@H]4CCN(C(=O)c5cc(C(F)(F)F)cc(C(F)(F)F)c5)[C@H](Cc5ccccc5)C4)CC3)C2)s1 (stereo partly shown) [Compound 95] |  |  |  |
| 1000 | 631 | 31.6 | CC(C(=O)N1CCCC(N2CCN([C@H]3CCN(C(=O)c4cc(C(F)(F)F)cc(C(F)(F)F)c4)[C@H](Cc4ccccc4)C3)CC2)C1)c1ccccc1 (stereo partly shown) [Compound 48] |  |  |  |
| 3160 | 100 | 7.94 | O=C(C1CCCC1)N1CCCC(N2CCN(C3CCN(C(=O)c4cc(C(F)(F)F)cc(C(F)(F)F)c4)C(Cc4ccccc4)C3)CC2)C1 (stereo not shown) [Compound 41] |  |  |  |
| 631 | 631 | 15.8 | Cc1ccccc1S(=O)(=O)N1CCCC(N2CCN([C@H]3CCN(C(=O)c4cc(C(F)(F)F)cc(C(F)(F)F)c4)[C@H](Cc4ccccc4)C3)CC2)C1 (stereo partly shown) [Compound 30] |  |  |  |
| 1260 | 316 | 6.31 | O=C(c1cc(C(F)(F)F)cc(C(F)(F)F)c1)N1CC[C@H](N2CCN(C3CCCN(S(=O)(=O)c4ccsc4)C3)CC2)C[C@H]1Cc1ccccc1 (stereo partly shown) [Compound 29] |  |  |  |
| 2510 | 631 | 39.8 | O=C(c1sccc1COCc1ccccc1)N1CCCC(N2CCN([C@H]3CCN(C(=O)c4cc(C(F)(F)F)cc(C(F)(F)F)c4)[C@H](Cc4ccccc4)C3)CC2)C1 (stereo partly shown) [Compound 88] |  |  |  |
| 794 | 501 | 10 | O=C(c1cc(C(F)(F)F)cc(C(F)(F)F)c1)N1CC[C@H](N2CCN(C3CCCN(S(=O)(=O)c4cccc(O)c4)C3)CC2)C[C@H]1Cc1ccccc1 (stereo partly shown) [Compound 80] |  |  |  |
